Test results from paper PMC9090415, “Discovery of small molecule inhibitors of Plasmodium falciparum apicoplast DNA polymerase” (Journal of Enzyme Inhibition and Medicinal Chemistry, 2022).

Target: P. falciparum apicoplast DNA polymerase (Pf-apPOL) (Plasmodium falciparum, UniProt Q8ILY1)
Assay: Fluorescence-based high-throughput DNA polymerase assay (molecular beacon), primary screen and dose-response
Assay type: biochemical
Procedure, shortened: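 Single-point screening used 10 µM compound with 20 nM polymerase, 20 nM hairpin substrate and 6 µM dNTPs for 90 min at 25 °C. Confirmatory titrations (2.5–80 µM) followed fluorescence at three times, and IC50 was derived from a fit including a cooperativity term n.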

[1] = supplemental file 2, sheet IC50 nontoxic compounds; Pf-apPOL

Chain of P. falciparum apicoplast DNA polymerase (Pf-apPOL) (Q8ILY1 entry or part of it): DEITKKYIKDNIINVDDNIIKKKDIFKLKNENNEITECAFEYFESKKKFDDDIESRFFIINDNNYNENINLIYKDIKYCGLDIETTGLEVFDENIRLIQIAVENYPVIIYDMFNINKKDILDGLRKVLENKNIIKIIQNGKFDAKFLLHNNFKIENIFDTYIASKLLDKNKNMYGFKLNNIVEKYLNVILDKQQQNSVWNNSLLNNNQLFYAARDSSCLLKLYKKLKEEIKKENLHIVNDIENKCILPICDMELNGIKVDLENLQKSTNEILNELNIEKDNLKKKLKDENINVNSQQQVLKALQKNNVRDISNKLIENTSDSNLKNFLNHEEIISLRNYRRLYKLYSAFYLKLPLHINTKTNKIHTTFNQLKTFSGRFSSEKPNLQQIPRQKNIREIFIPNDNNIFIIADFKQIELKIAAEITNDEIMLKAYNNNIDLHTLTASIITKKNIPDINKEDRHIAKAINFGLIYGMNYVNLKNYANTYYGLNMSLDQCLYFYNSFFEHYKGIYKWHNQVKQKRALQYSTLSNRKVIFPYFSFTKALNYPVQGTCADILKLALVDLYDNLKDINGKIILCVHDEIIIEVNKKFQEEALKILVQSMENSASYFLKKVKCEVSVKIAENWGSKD

O=[N+]([O-])c1cc2c(cc1CN1CCCCCC1)OCO2 [KU0004987]
DNA Pol ('DNA Pol'; screening value, unit not given; 90 min, 10 µM): 33 | % inhibition Apo pol 10' (DRC-1; 10'; concentration 2.5): 6.817% | % inhibition Apo pol 10' (DRC-1; 10'; concentration 5): 8.194% | % inhibition Apo pol 10' (DRC-1; 10'; concentration 10): 20.8655% | % inhibition Apo pol 10' (DRC-1; 10'; concentration 20): 39.2503% | % inhibition Apo pol 10' (DRC-1; 10'; concentration 40): 59.1088% | % inhibition Apo pol 10' (DRC-1; 10'; concentration 80): 75.1762% | % inhibition Apol 90' (DRC-1; 90'; concentration 2.5): 1.395% | % inhibition Apol 90' (DRC-1; 90'; concentration 5): -0.8625% | % inhibition Apol 90' (DRC-1; 90'; concentration 10): 9.436% | % inhibition Apol 90' (DRC-1; 90'; concentration 20): 21.3205% | % inhibition Apol 90' (DRC-1; 90'; concentration 40): 39.3126% | % inhibition Apol 90' (DRC-1; 90'; concentration 80): 55.7488% | % inhibition apPOL 180' (DRC-1; 180'; concentration 2.5): -4.392% | % inhibition apPOL 180' (DRC-1; 180'; concentration 5): -7.266% | % inhibition apPOL 180' (DRC-1; 180'; concentration 10): 1.794% | % inhibition apPOL 180' (DRC-1; 180'; concentration 20): 10.6731% | % inhibition apPOL 180' (DRC-1; 180'; concentration 40): 27.0699% | % inhibition apPOL 180' (DRC-1; 180'; concentration 80): 43.7361% | % inhibition Apo pol 5' (DRC-2, 5', concentration 2.5): 17% | % inhibition Apo pol 5' (DRC-2, 5', concentration 5): 20% | % inhibition Apo pol 5' (DRC-2, 5', concentration 10): 32% | % inhibition Apo pol 5' (DRC-2, 5', concentration 20): 39% | % inhibition Apo pol 5' (DRC-2, 5', concentration 40): 46% | % inhibition Apo pol 5' (DRC-2, 5', concentration 80): 49% | % inhibition Apol 40' (DRC-2, 40', concentration 2.5): 13% | % inhibition Apol 40' (DRC-2, 40', concentration 5): 15% | % inhibition Apol 40' (DRC-2, 40', concentration 10): 22% | % inhibition Apol 40' (DRC-2, 40', concentration 20): 29% | % inhibition Apol 40' (DRC-2, 40', concentration 40): 39% | % inhibition Apol 40' (DRC-2, 40', concentration 80): 49% | % inhibition ApPOL 90' (DRC-2, 90', concentration 2.5): 9% | % inhibition ApPOL 90' (DRC-2, 90', concentration 5): 9% | % inhibition ApPOL 90' (DRC-2, 90', concentration 10): 16% | % inhibition ApPOL 90' (DRC-2, 90', concentration 20): 23% | % inhibition ApPOL 90' (DRC-2, 90', concentration 40): 33% | % inhibition ApPOL 90' (DRC-2, 90', concentration 80): 45% | % inhibition apPOL 180' (DRC-2, 180', concentration 2.5): 0.644% | % inhibition apPOL 180' (DRC-2, 180', concentration 5): 0.589% | % inhibition apPOL 180' (DRC-2, 180', concentration 10): 6% | % inhibition apPOL 180' (DRC-2, 180', concentration 20): 10% | % inhibition apPOL 180' (DRC-2, 180', concentration 40): 22% | % inhibition apPOL 180' (DRC-2, 180', concentration 80): 36% | % inhibition ApPOL 90' (conc 2.5 (unit not given); 90'; DRC-2): 9% | % inhibition ApPOL 90' (conc 5 (unit not given); 90'; DRC-2): 9% | % inhibition Apol 40' (conc 10 (unit not given); 40'; DRC-2): 22% | % inhibition Apo pol 5' (conc 20 (unit not given); 5'; DRC-2): 39% | % inhibition Apol 40' (conc 40 (unit not given); 40'; DRC-2): 39% | % inhibition apPOL 180' (conc 40 (unit not given); 180'; DRC-2): 22% | % inhibition Apo pol 5' (conc 80 (unit not given); 5'; DRC-2): 49% | % inhibition Apol 40' (conc 80 (unit not given); 40'; DRC-2): 49% | DNA Pol (primary screen hit value, DNA Pol (186 hits); 90 min, 10 µM): 33

O=C1CSC2=NC3=C(CCc4ccccc43)C(c3cccs3)N12 (stereo not shown) [Molecule 59]
IC50 [1]: 14.7 µM

COc1cccc(Oc2c(C(F)(F)F)oc3cc(OC(=O)N(C)C)ccc3c2=O)c1 [Molecule 52]
IC50 [1]: 40.6 µM

Cc1ccccc1C(=O)N1CCc2c(nc3cc(-c4ccccc4)[nH]n3c2=O)C1 [Molecule 41]
IC50 [1]: 12.4 µM

Cc1cc(C)c2c(O)nc(SCC(=O)c3ccc(O)c(O)c3)nc2n1 [Molecule 88]
IC50 [1]: < 2.5 µM

N#CC(C#N)=C1SCN(c2cccc(Cl)c2)CS1 [Molecule 29]
IC50 [1]: 11.9 µM

Cc1ccc(NC(=O)Cn2ccc3c(=O)[nH]ccc32)cc1 [Molecule 50]
IC50 [1]: 13.7 µM

CCCCCCCCCCCCCCCCCC(=O)CCN(C)C [KU0271928]
% inhibition Apo pol 10' (DRC-1; 10'; concentration 2.5): 4.376% | % inhibition Apo pol 10' (DRC-1; 10'; concentration 5): 8.002% | % inhibition Apo pol 10' (DRC-1; 10'; concentration 10): 14.7164% | % inhibition Apo pol 10' (DRC-1; 10'; concentration 20): 22.8957% | % inhibition Apo pol 10' (DRC-1; 10'; concentration 40): 29.808% | % inhibition Apo pol 10' (DRC-1; 10'; concentration 80): 46.1524% | % inhibition Apol 90' (DRC-1; 90'; concentration 2.5): 3.047% | % inhibition Apol 90' (DRC-1; 90'; concentration 5): 4.9355% | % inhibition Apol 90' (DRC-1; 90'; concentration 10): 15.0466% | % inhibition Apol 90' (DRC-1; 90'; concentration 20): 24.954% | % inhibition Apol 90' (DRC-1; 90'; concentration 40): 42.2957% | % inhibition Apol 90' (DRC-1; 90'; concentration 80): 71.469% | % inhibition apPOL 180' (DRC-1; 180'; concentration 2.5): 2.105% | % inhibition apPOL 180' (DRC-1; 180'; concentration 5): 0.02519% | % inhibition apPOL 180' (DRC-1; 180'; concentration 10): 10.3787% | % inhibition apPOL 180' (DRC-1; 180'; concentration 20): 23.1469% | % inhibition apPOL 180' (DRC-1; 180'; concentration 40): 44.4373% | % inhibition apPOL 180' (DRC-1; 180'; concentration 80): 80.1406% | % inhibition Apol 40' (DRC-2, 40', concentration 5 (unit not given)): 4% | % inhibition Apol 40' (DRC-2, 40', concentration 20 (unit not given)): 13% | % inhibition apPOL 180' (DRC-2, 180', concentration 5 (unit not given)): 4% | % inhibition apPOL 180' (DRC-2, 180', concentration 20 (unit not given)): 13% | % inhibition Apo pol 5' (DRC-2; 5'; concentration 2.5): 0.736% | % inhibition Apo pol 5' (DRC-2; 5'; concentration 5): 1.37% | % inhibition Apo pol 5' (DRC-2; 5'; concentration 10): 2.68% | % inhibition Apo pol 5' (DRC-2; 5'; concentration 20): 5.52% | % inhibition Apo pol 5' (DRC-2; 5'; concentration 40): 18% | % inhibition Apo pol 5' (DRC-2; 5'; concentration 80): 37% | % inhibition Apol 40' (DRC-2; 40'; concentration 2.5): 2.22% | % inhibition Apol 40' (DRC-2; 40'; concentration 5): 4% | % inhibition Apol 40' (DRC-2; 40'; concentration 10): 4.59% | % inhibition Apol 40' (DRC-2; 40'; concentration 20): 13% | % inhibition Apol 40' (DRC-2; 40'; concentration 40): 28% | % inhibition Apol 40' (DRC-2; 40'; concentration 80): 61% | % inhibition ApPOL 90' (DRC-2; 90'; concentration 2.5): 1.86% | % inhibition ApPOL 90' (DRC-2; 90'; concentration 5): 3.32% | % inhibition ApPOL 90' (DRC-2; 90'; concentration 10): 2.69% | % inhibition ApPOL 90' (DRC-2; 90'; concentration 20): 12% | % inhibition ApPOL 90' (DRC-2; 90'; concentration 40): 30% | % inhibition ApPOL 90' (DRC-2; 90'; concentration 80): 67% | % inhibition apPOL 180' (DRC-2; 180'; concentration 2.5): 1.53% | % inhibition apPOL 180' (DRC-2; 180'; concentration 5): 4% | % inhibition apPOL 180' (DRC-2; 180'; concentration 10): 2.45% | % inhibition apPOL 180' (DRC-2; 180'; concentration 20): 13% | % inhibition apPOL 180' (DRC-2; 180'; concentration 40): 31% | % inhibition apPOL 180' (DRC-2; 180'; concentration 80): 73% | DNA Pol (primary screen value of the 186 hits; unit not given; 90 min, 10 µM): 46 | DNA Pol (primary screen value, head "DNA Pol", unit not given; 90 min, 10 µM): 46

Cc1ccccc1NC(=O)Cn1ccc2c(=O)[nH]ccc21 [Molecule 50, O=C(Cn1ccc2c1cc[nH]c2=O)Nc1ccc(cc1)C]
DNA Pol ('DNA Pol' of the 186 hits list (screen value); 90 min, 10 µM): 47 | % inhibition Apo pol 10' (DRC-1; 10'; conc 2.5): 6.138% | % inhibition Apo pol 10' (DRC-1; 10'; conc 5): 25.5303% | % inhibition Apo pol 10' (DRC-1; 10'; conc 10): 50.7772% | % inhibition Apo pol 10' (DRC-1; 10'; conc 20): 84.6667% | % inhibition Apo pol 10' (DRC-1; 10'; conc 40): 88.6284% | % inhibition Apo pol 10' (DRC-1; 10'; conc 80): 86.1182% | % inhibition Apol 90' (DRC-1; 90'; conc 2.5): 0% | % inhibition Apol 90' (DRC-1; 90'; conc 5): 12.4445% | % inhibition Apol 90' (DRC-1; 90'; conc 10): 34.9563% | % inhibition Apol 90' (DRC-1; 90'; conc 20): 76.8341% | % inhibition Apol 90' (DRC-1; 90'; conc 40): 88.9511% | % inhibition Apol 90' (DRC-1; 90'; conc 80): 91.6504% | % inhibition apPOL 180' (DRC-1; 180'; conc 2.5): -5.117% | % inhibition apPOL 180' (DRC-1; 180'; conc 5): 1.53% | % inhibition apPOL 180' (DRC-1; 180'; conc 10): 18.0817% | % inhibition apPOL 180' (DRC-1; 180'; conc 20): 64.1474% | % inhibition apPOL 180' (DRC-1; 180'; conc 40): 85.8042% | % inhibition apPOL 180' (DRC-1; 180'; conc 80): 93.6476% | % inhibition Apo pol 5' (DRC-2; 5'; conc 2.5): 8% | % inhibition Apo pol 5' (DRC-2; 5'; conc 5): 16% | % inhibition Apo pol 5' (DRC-2; 5'; conc 10): 39% | % inhibition Apo pol 5' (DRC-2; 5'; conc 20): 47% | % inhibition Apo pol 5' (DRC-2; 5'; conc 40): 49% | % inhibition Apo pol 5' (DRC-2; 5'; conc 80): 42% | % inhibition Apo pol 5' (DRC-2; 5'; concentration 5): 16% | % inhibition Apol 40' (DRC-2; 40'; conc 2.5): 5% | % inhibition Apol 40' (DRC-2; 40'; conc 5): 16% | % inhibition Apol 40' (DRC-2; 40'; conc 10): 44% | % inhibition Apol 40' (DRC-2; 40'; conc 20): 64% | % inhibition Apol 40' (DRC-2; 40'; conc 40): 70% | % inhibition Apol 40' (DRC-2; 40'; conc 80): 67% | % inhibition Apol 40' (DRC-2; 40'; concentration 5): 16% | % inhibition ApPOL 90' (DRC-2; 90'; conc 2.5): 0.827% | % inhibition ApPOL 90' (DRC-2; 90'; conc 5): 13% | % inhibition ApPOL 90' (DRC-2; 90'; conc 10): 41% | % inhibition ApPOL 90' (DRC-2; 90'; conc 20): 65% | % inhibition ApPOL 90' (DRC-2; 90'; conc 40): 75% | % inhibition ApPOL 90' (DRC-2; 90'; conc 80): 73% | % inhibition apPOL 180' (DRC-2; 180'; conc 2.5): -4% | % inhibition apPOL 180' (DRC-2; 180'; conc 5): 2.7% | % inhibition apPOL 180' (DRC-2; 180'; conc 10): 29% | % inhibition apPOL 180' (DRC-2; 180'; conc 20): 60% | % inhibition apPOL 180' (DRC-2; 180'; conc 40): 78% | % inhibition apPOL 180' (DRC-2; 180'; conc 80): 78% | % inhibition apPOL 180' (DRC-2; 180'; concentration 40): 78% | % inhibition apPOL 180' (DRC-2; 180'; concentration 80): 78% | DNA Pol (primary screen value, "DNA Pol"; 90 min, 10 µM): 47
